Biological target: Wee1 (Homo sapiens (Human), UniProt P30291)
Test: In vitro enzymatic inhibitory activity (33P-ATP filter-binding kinase assay, MBP substrate)
Format: biochemical
Details: Wee-1 150 nM, MBP 20 μM
Method: The compounds of the present invention for experimental use were all self-prepared, and their chemical names and structural formulas are shown in the preparation embodiments of the respective compounds. The experimental tests were carried out in Reaction Biology Corporation, USA, and the experimental results were provided by the company. Basic reaction buffer: 20 mM hydroxyethylpiperazine ethanesulfuric acid (pH 7.5), 10 mM magnesium chloride, 1 mM EGTA, 0.02% Brij35, 0.02 mg/mL bovine serum albumin, 0.1 mM Na3VO4, 2 mM DTT, 1% DMSO Enzyme: Wee-1 concentration is 150 nM Matrix: MBP concentration is 20 μM The tested compound was formulated into a 5 mM solution with 100% DMSO, and a 10 points 3-fold gradient dilution was performed with DMSO through an automated pipetting station epMotion 5070. 1. Fresh matrix configuration reaction buffer was prepared; 2. The Wee-1 was added into the matrix solution and shaked gently; 3. DMSO solution of the compound were added into the kinase reaction mixture using an acoustic technique (Echo 550; nanoliter range) and incubated for 20 minutes at room temperature; 4. ^33P-ATP (specific activity, 10 μCi/μL) was added into the reaction mixture to stimulate the reaction; 5. Incubated for 2 hours at room temperature; 6. Kinase activity was detected by filter-binding method.

Chain of Wee1 (P30291 whole entry): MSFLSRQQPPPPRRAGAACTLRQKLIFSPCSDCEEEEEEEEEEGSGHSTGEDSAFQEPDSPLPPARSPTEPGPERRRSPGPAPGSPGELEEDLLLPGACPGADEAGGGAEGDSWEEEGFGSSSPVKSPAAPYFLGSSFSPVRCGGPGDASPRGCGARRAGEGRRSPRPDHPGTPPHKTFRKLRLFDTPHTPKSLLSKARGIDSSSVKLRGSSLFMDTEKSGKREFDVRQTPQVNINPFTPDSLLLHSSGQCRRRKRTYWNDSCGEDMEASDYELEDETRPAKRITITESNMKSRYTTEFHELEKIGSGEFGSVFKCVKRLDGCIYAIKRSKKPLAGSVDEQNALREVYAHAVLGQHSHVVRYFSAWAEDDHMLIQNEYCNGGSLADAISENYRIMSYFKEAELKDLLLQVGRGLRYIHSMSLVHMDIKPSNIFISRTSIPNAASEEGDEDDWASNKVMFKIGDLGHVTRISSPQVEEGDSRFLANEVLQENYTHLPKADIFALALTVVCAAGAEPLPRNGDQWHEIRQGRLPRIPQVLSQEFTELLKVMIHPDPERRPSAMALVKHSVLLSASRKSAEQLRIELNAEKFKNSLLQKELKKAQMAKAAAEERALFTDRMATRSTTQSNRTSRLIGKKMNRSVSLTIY

Structure (SMILES)	IC50
C=CCn1c(=O)c2cnc(Nc3ccc(N4CCC5(CCN(C)CC5)CC4)cc3)nc2n1-c1ncccn1 [Embodiment 4, 2-allyl-6-((4-(9-methyl-3,9-diazaspiro[5.5]undecan-3-yl)phenyl)amino)-1-(pyrimidin-2-yl)-1H-pyazolo[3,4-d]pyrimidine-3(2H)-one]	251 nM
C=CCn1c(=O)c2cnc(Nc3ccc(N4CCC5(CCN(C)CC5)CC4)cc3)nc2n1-c1cncnc1 [Embodiment 6, 2-allyl-6-((4-(9-methyl-3,9-diazaspiro[5.5]undecan-3-yl)phenyl)amino)-1-(pyrimidin-5-yl)-1H-pyrazolo[3,4-d]pyrimidin-3(2H)-one]	102 nM
C=CCn1c(=O)c2cnc(Nc3ccc(N4CCC5(CCN(C)CC5)CC4)cc3)nc2n1-c1cccs1 [Embodiment 7, 2-allyl-6-((4-(9-methyl-3,9-diazaspiro[5.5]undecan-3-yl)phenyl)amino)-1-(thiophen-2-yl)-1H-pyrazolo[3,4-d]pyrimidin-3(2H)-one]	82.5 nM
C=CCn1c(=O)c2cnc(Nc3ccc(N4CCC5(CCN(C)CC5)CC4)cc3)nc2n1-c1ccsc1 [Embodiment 8, 2-allyl-6-((4-(9-methyl-3,9-diazaspiro[5.5]undecan-3-yl)phenyl)amino)-1-(thiophen-3-yl)-1H-pyrazolo[3,4-d]pyrimidin-3(2H)-one]	51.9 nM
C=CCn1c(=O)c2cnc(Nc3ccc(N4CCC5(CCN(C)CC5)CC4)cc3)nc2n1-c1nccs1 [Embodiment 9, 2-allyl-6-((4-(9-methyl-3,9-diazaspiro[5.5]undecan-3-yl)phenyl)amino)-1-(thiazol-2-yl)-1H-pyrazolo[3,4-d]pyrimidin-3(2H)-one]	109 nM
C=CCn1c(=O)c2cnc(Nc3ccc(N4CCC5(CCN(C)CC5)CC4)cc3)nc2n1-c1cccc(Cl)c1 [Embodiment 11, 2-allyl-1-(3-chlorophenyl)-6-((4-(9-methyl-3,9-diazaspiro[5.5]undecan-3-yl)phenyl)amino)-1H-pyrazolo[3,4-d]pyrimidin-3(2H)-one]	48.1 nM
C=CCn1c(=O)c2cnc(Nc3ccc(N4CCC5(CCN(C)CC5)CC4)cc3)nc2n1-c1ccc(Cl)cc1 [Embodiment 12, 2-allyl-1-(4-chlorophenyl)-6-((4-(9-methyl-3,9-diazaspiro[5.5]undecan-3-yl)phenyl)amino)-1H-pyrazolo[3,4-d]pyrimidin-3(2H)-one]	25.3 nM
C=CCn1c(=O)c2cnc(Nc3ccc(N4CCC5(CCN(C)CC5)CC4)cc3)nc2n1-c1cccc(C(N)=O)n1 [Embodiment 13, 6-(2-allyl-6-((4-(9-methyl-3,9-diazaspiro[5.5]undecan-3-yl)phenyl)amino)-3-oxo-2,3-dihydro-1H-pyrazolo[3,4-d]pyrimidin-1-yl)picolinamide]	42 nM
C=CCn1c(=O)c2cnc(Nc3ccc(N4CCC5(CCN(C)CC5)CC4)cc3)nc2n1-c1cccc(C(=O)NC)n1 [Embodiment 14, 6-(2-allyl-6-((4-(9-methyl-3,9-diazaspiro[5.5]undecan-3-yl)phenyl)amino)-3-oxo-2,3-dihydro-1H-pyrazolo[3,4-d]pyrimidin-1-yl)-N-methylpicolinamide]	47.8 nM
C=CCn1c(=O)c2cnc(Nc3ccc(N4CCC5(CCN(C)CC5)CC4)cc3)nc2n1-c1cccc(C(N)=O)c1 [Embodiment 16, 3-(2-allyl-6-((4-(9-methyl-3,9-diazaspiro[5.5]undecan-3-yl)phenyl)amino)-3-oxo-2,3-dihydro-1H-pyrazolo[3,4-d]pyrimidin-1-yl)benzamide]	52.8 nM
C=CCn1c(=O)c2cnc(Nc3ccc(N4CCC5(CCN(C)CC5)CC4)cc3)nc2n1-c1cccc(C(=O)NC)c1 [Embodiment 17, 3-(2-allyl-6-((4-(9-methyl-3,9-diazaspiro[5.5]undecan-3-yl)phenyl)amino)-3-oxo-2,3-dihydro-1H-pyrazolo[3,4-d]pyrimidin-1-yl)-N-methylbenzamide]	42.5 nM
CN1CCC2(CC1)CCN(c1ccc(Nc3ncc4c(=O)n(C)n(-c5ccccc5)c4n3)cc1)CC2 [Embodiment 18, 2-methyl-6-((4-(9-methyl-3,9-diazaspiro[5.5]undecane-3-yl)phenyl)amino)-1-phenyl-1H-pyrazolo[3,4-d](2H)-one]	131 nM
CCn1c(=O)c2cnc(Nc3ccc(N4CCC5(CCN(C)CC5)CC4)cc3)nc2n1-c1ccccc1 [Embodiment 19, 2-ethyl-6-((4-(9-methyl-3,9-diazaspiro[5.5]undecan-3-yl)phenyl)amino)-1-phenyl-1H-pyrazolo[3,4-d](2H)-one]	83.2 nM
CN1CCC2(CC1)CCN(c1ccc(Nc3ncc4c(=O)n(CC(F)F)n(-c5ccccc5)c4n3)cc1)CC2 [Embodiment 22, 2-(2,2-difluroethyl)-6-((4-(9-methyl-3,9-diazaspiro[5.5]undecan-3-yl)phenyl)amino)-1-phenyl-1H-pyrazolo[3,4-d](2H)-one]	239 nM
CN1CCC2(CC1)CCN(c1ccc(Nc3ncc4c(=O)n(Cc5ccccc5)n(-c5ccccc5)c4n3)cc1)CC2 [Embodiment 23, 2-benzyl-6-((4-(9-methyl-3,9-diazaspiro[5.5]undecane-3-yl)phenyl)amino)-1-phenyl-1H-pyrazolo[3,4-d](2H)-one]	79.6 nM
CCCn1c(=O)c2cnc(Nc3ccc(N4CCC5(CCN(C)CC5)CC4)cc3)nc2n1-c1cccc(C(C)(C)O)n1 [Embodiment 24, 1-(6-(2-hydroxypropan-2-yl)pyridin-2-yl)-6-((4-(9-methyl-3,9-diazaspiro[5.5]undecan-3-yl)phenyl)amino)-2-propyl-1H-pyrazolo[3,4-d]pyrimidin-3(2H)-one]	48.8 nM
C=CCn1c(=O)c2cnc(Nc3ccc(N4CCC5(CCN(C)CC5)CC4)cc3)nc2n1-c1cccc(Cl)n1 [Embodiment 25, 2-allyl-1-(6-chloropyridin-2-yl)-6-((4-(9-methyl-3,9-diazaspiro[5.5]undecan-3-yl)phenyl)amino)-1H-pyrazolo[3,4-d]pyrimidin-3(2H)-one]	20.4 nM
C=CCn1c(=O)c2cnc(Nc3ccc(N4CCC5(CCN(C)CC5)CC4)cc3)nc2n1-c1ccc(Cl)cn1 [Embodiment 26, 2-allyl-1-(5-chloropyridin-2-yl)-6-((4-(9-methyl-3,9-diazaspiro[5.5]undecan-3-yl)phenyl)amino)-1H-pyrazolo[3,4-d]pyrimidin-3(2H)-one]	14.1 nM
C=CCn1c(=O)c2cnc(Nc3ccc(N4CCC5(CCN(C)CC5)CC4)cc3)nc2n1-c1cccc(F)n1 [Embodiment 27, 2-allyl-1-(6-fluoropyridin-2-yl)-6-((4-(9-methyl-3,9-diazaspiro[5.5]undecane-3-yl)phenyl)amino)-1H-pyrazolo[3,4-d]pyrimidin-3(2H)-one]	24.9 nM
C=CCn1c(=O)c2cnc(Nc3ccc(N4CCC5(CCN(C)CC5)CC4)cc3)nc2n1-c1ccc(F)cn1 [Embodiment 28, 2-allyl-1-(5-fluoropyridin-2-yl)-6-((4-(9-methyl-3,9-diazaspiro[5.5]undecan-3-yl)phenyl)amino)-1H-pyrazolo[3,4-d]pyrimidin-3(2H)-one]	13.2 nM
C=CCn1c(=O)c2cnc(Nc3ccc(N4CCC5(CCN(C(=O)OC)CC5)CC4)cc3)nc2n1-c1cccc(C(C)(C)O)n1 [Embodiment 31, methyl-9-(4-((2-allyl-1-(6-(2-hydroxypropan-2-yl)pyridin-2-yl)-3-oxo-2,3-dihydro-1H-pyrazolo[3,4-d]pyrimidin-6-yl)amino)phenyl)-3,9-diazaspiro[5.5]undecan-3-ethyl carboxylate]	15 nM
C=CCn1c(=O)c2cnc(Nc3ccc(N4CCC5(CCN(C)CC5)CC4)c(F)c3)nc2n1-c1cccc(C(C)(C)O)n1 [Embodiment 34, 2-allyl-6((3-fluoro-4-(9-methyl-3,9-diazaspiro[5.5]undecan-3-yl)phenyl)amino)-1-(6-(2-hydroxypropan-2-yl)pyridin-2-yl)-1H-pyrazolo[3,4-d]pyrimidin-3(2H)-one]	120 nM
C=CCn1c(=O)c2cnc(Nc3ccc(N4CCC5(CCN(C)CC5)CC4)cc3C)nc2n1-c1cccc(C(C)(C)O)n1 [Embodiment 35, 2-allyl-1-(6-(2-hydroxypropan-2-yl)pyridin-2-yl)-6((2-methyl-4-(9-methyl-3,9-diazaspiro[5.5]undecan-3-yl)phenyl)amino)-1H-pyrazolo[3,4-d]pyrimidine-3(2H)-one]	241 nM
C=CCn1c(=O)c2cnc(Nc3ccc(N4CCC5(CCN(C)CC5)CC4)c(C)c3)nc2n1-c1cccc(C(C)(C)O)n1 [Embodiment 36, 2-allyl-1-(6-(2-hydroxypropan-2-yl)pyridin-2-yl)-6((3-methyl-4-(9-methyl-3,9-diazaspiro[5.5]undecan-3-yl)phenyl)amino)-1H-pyrazolo[3,4-d]pyrimidine-3(2H)-one]	57.1 nM
C=CCn1c(=O)c2cnc(Nc3ccc(N4CCC5(CCN(C)CC5)CC4)cc3OC)nc2n1-c1cccc(C(C)(C)O)n1 [Embodiment 37, 2-allyl-1-(6-(2-hydroxypropan-2-yl)pyridin-2-yl)-6((2-methoxy-4-(9-methyl-3,9-diazaspiro[5.5]undecan-3-yl)phenyl)amino)-1H-pyrazolo[3,4-d]pyrimidin-3(2H)-one]	328 nM
C=CCn1c(=O)c2cnc(Nc3ccc(N4CCC5(CCN(C)CC5)CC4)c(OC)c3)nc2n1-c1cccc(C(C)(C)O)n1 [Embodiment 38, 2-allyl-1-(6-(2-hdyroxypropan-2-yl)pyridin-2-yl)-6((3-methoxy-4-(9-methyl-3,9-diazaspiro[5.5]undecan-3-yl)phenyl)amino)-1H-pyrazolo[3,4-d]pyrimidine-3(2H)-one]	20.7 nM

— US10954253B2, “1,2-dihydro-3H-pyrazolo[3,4-d]pyrimidin-3-one derivative as Wee1 inhibitor” (SHIJIAZHUANG SAGACITY NEW DRUG DEVELOPMENT CO., LTD., priority 2017, dated 2021)
